The nature of data set [1]: log P determination by HPLC (EEC Directive 79/831 Annex V.A8). It counts as physicochemical. The following applies: log P. How it is done: The measurements were carried out using an Agilent 1100 LC system with a 50*4.6 Zorbax Eclipse C18 1.8 μm column (oven temperature 55° C., flow rate 2.0 ml/min).
The following mobile phases were used:
Mobile phase A: acetonitrile+1000 μl of formic acid/l
Mobile phase B: Millipore water+900 μl of formic acid/l

Data set [2] has as its system larvae of the mustard beetle (Phaedon cochleariae). Kind of data set: Phaedon test (PHAECO spray treatment). The following applies: Phaedon cochleariae, in Brassica rapa, foliar, read-out: effect in % (beetle larvae killed).
Data set [3] deals with caterpillars of the armyworm (Spodoptera frugiperda). The data set is described as follows: Spodoptera frugiperda test (SPODFR spray treatment). It counts as in vivo. Conditions: Spodoptera frugiperda, in Zea mays, foliar, read-out: effect in % (caterpillars killed). The source says: Solvent: 78.0 parts by weight of acetone

Some results are limits rather than exact numbers.

The chromatographic logP is a lipophilicity value derived from retention on a column.

Take `Cc1cc(Cl)cc(C(=O)NC2CC2)c1NC(=O)c1cc(Cn2nnc(C(F)(F)F)n2)nn1-c1ncccc1Cl` [Example 25]: in data set [1], the chromatographic logP was determined as 3.23. Moreover, the pest or weed control at 100 g/ha in data set [2] and in data set [3] was at least 80% throughout.
In turn, `CNC(=O)c1cc(Br)cc(C)c1NC(=O)c1cc(Cn2nnc(C(F)(F)F)n2)nn1-c1ncccc1Cl` [Example 28] came in with a chromatographic logP in data set [1] of 3.05. For the same compound, the pest or weed control at 100 g/ha in data set [2] and in data set [3] was at least 80% throughout.
For the compound `CCNC(=O)c1cc(Cl)cc(C)c1NC(=O)c1cc(Cn2nnc(C(F)(F)F)n2)nn1-c1ncccc1Cl` [Example 33], in data set [1], the chromatographic logP amounted to 3.23. Also, the pest or weed control at 100 g/ha in data set [2] and in data set [3] was at least 80% each time.
As for `CCNC(=O)c1cc(Br)cc(C)c1NC(=O)c1cc(Cn2nnc(C(F)(F)F)n2)nn1-c1ncccc1Cl` [Example 34], the chromatographic logP in data set [1] turned out to be 3.32. Also, the pest or weed control at 100 g/ha in data set [2] and in data set [3] was at least 80% throughout.
As to `CCC(C)NC(=O)c1cc(Cl)cc(C)c1NC(=O)c1cc(Cn2nnc(C(F)(F)F)n2)nn1-c1ncccc1Cl` (stereo not drawn) [Example 36], the chromatographic logP in data set [1] came out at 3.74. Further, the pest or weed control at 100 g/ha in data set [2] and in data set [3] was at least 80% each time.
In turn, `Cc1cc(Cl)cc(C(=O)NCC(C)C)c1NC(=O)c1cc(Cn2nnc(C(F)(F)F)n2)nn1-c1ncccc1Cl` [Example 37] yielded a chromatographic logP in data set [1] of 3.78. The pest or weed control at 100 g/ha in data set [2] and in data set [3] was at least 80% in each case.
As to `Cc1cc(C#N)cc(C(=O)NCC(C)C)c1NC(=O)c1cc(Cn2nnc(C(F)(F)F)n2)nn1-c1ncccc1Cl` [Example 38], in data set [1], the chromatographic logP was 3.37. The pest or weed control at 100 g/ha in data set [2] and in data set [3] was at least 80% each time.
In the case of `Cc1cc(Br)cc(C(=O)NC(C)C)c1NC(=O)c1cc(Cn2nnc(C(F)(F)F)n2)nn1-c1ncccc1Cl` [Example 39], the chromatographic logP in data set [1] amounted to 3.57. For the same compound, the pest or weed control at 100 g/ha in data set [2] and in data set [3] was at least 80% each time.
`Cc1cc(F)cc(C(=O)NC(C)C)c1NC(=O)c1cc(Cn2nnc(C(F)(F)F)n2)nn1-c1ncccc1Cl` [Example 40]: in data set [1], the chromatographic logP is 3.11. Further, the pest or weed control at 100 g/ha in data set [2] and in data set [3] was at least 80% each time.
In data set [1], `Cc1cc(Cl)cc(C(=O)NCC2CC2)c1NC(=O)c1cc(Cn2nnc(C(F)(F)F)n2)nn1-c1ncccc1Cl` [Example 46] showed a chromatographic logP of 3.53. In addition, the pest or weed control at 100 g/ha in data set [2] and in data set [3] was at least 80% throughout.
Regarding `Cc1cc(Br)cc(C(=O)NCC2CC2)c1NC(=O)c1cc(Cn2nnc(C(F)(F)F)n2)nn1-c1ncccc1Cl` [Example 47], in data set [1], the chromatographic logP was found to be 3.88. Moreover, the pest or weed control at 100 g/ha in data set [2] and in data set [3] was at least 80% in each case.
Regarding `Cc1cc(F)cc(C(=O)NCC2CC2)c1NC(=O)c1cc(Cn2nnc(C(F)(F)F)n2)nn1-c1ncccc1Cl` [Example 48], the chromatographic logP in data set [1] came to 3.18. The pest or weed control at 100 g/ha in data set [2] and in data set [3] was at least 80% in each case.
The compound `Cc1cc(Cl)cc(C(=O)NC2CCC2)c1NC(=O)c1cc(Cn2nnc(C(F)(F)F)n2)nn1-c1ncccc1Cl` [Example 49] registered a chromatographic logP in data set [1] of 3.6. The pest or weed control at 100 g/ha in data set [2] and in data set [3] was at least 80% each time.
`Cc1cc(Br)cc(C(=O)NC2CCC2)c1NC(=O)c1cc(Cn2nnc(C(F)(F)F)n2)nn1-c1ncccc1Cl` [Example 50] displayed a chromatographic logP in data set [1] of 3.71. For the same compound, the pest or weed control at 100 g/ha in data set [2] and in data set [3] was at least 80% throughout.
`CC(NC(=O)c1cc(Cl)cc(Cl)c1NC(=O)c1cc(Cn2nnc(C(F)(F)F)n2)nn1-c1ncccc1Cl)C1CC1` (stereo not drawn) [Example 56] registered a chromatographic logP in data set [1] of 3.71. Moreover, the pest or weed control at 100 g/ha in data set [2] and in data set [3] was at least 80% each time.

Values taken from patent publication US8324390B2, “Tetrazole-substituted anthranilamides as pesticides” (Bayer CropScience AG, priority 2008, dated 2012).
